Like-named read-outs stand apart in the source and are kept apart here.
Columns and labels:
Type in all cases: biochemical
Axl = biological target: T1, Axl (Homo sapiens, UniProt P30530); assay: Axl kinase inhibition IC50
T1 sequence (P30530 26-894): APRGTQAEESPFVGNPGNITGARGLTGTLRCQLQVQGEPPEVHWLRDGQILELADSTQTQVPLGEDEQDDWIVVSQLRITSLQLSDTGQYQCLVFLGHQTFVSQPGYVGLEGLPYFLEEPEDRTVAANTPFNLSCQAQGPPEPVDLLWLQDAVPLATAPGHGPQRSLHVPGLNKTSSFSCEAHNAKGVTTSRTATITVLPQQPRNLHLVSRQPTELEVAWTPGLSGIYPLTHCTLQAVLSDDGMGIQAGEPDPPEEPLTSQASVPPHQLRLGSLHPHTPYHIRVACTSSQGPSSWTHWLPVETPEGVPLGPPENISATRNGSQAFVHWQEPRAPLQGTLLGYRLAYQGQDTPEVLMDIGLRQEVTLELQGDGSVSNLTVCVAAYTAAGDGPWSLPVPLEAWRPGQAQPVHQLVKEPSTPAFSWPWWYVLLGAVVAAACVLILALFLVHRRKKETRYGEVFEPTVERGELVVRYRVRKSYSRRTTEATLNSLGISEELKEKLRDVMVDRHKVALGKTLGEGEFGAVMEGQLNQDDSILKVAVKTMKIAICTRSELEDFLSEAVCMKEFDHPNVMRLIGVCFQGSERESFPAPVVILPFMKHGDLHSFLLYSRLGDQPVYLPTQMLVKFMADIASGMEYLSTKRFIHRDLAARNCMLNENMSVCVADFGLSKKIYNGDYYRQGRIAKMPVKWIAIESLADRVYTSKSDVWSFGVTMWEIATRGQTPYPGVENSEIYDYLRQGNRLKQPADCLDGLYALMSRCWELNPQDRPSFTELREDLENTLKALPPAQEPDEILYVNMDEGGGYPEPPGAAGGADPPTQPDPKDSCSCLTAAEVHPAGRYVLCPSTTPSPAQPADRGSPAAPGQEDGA

Tyro3 = biological target: T2, Tyro3 (Homo sapiens, UniProt Q06418); assay: Tyro3 kinase inhibition IC50; conditions: read-out: Tyro3 IC50
T2 sequence (Q06418 41-890): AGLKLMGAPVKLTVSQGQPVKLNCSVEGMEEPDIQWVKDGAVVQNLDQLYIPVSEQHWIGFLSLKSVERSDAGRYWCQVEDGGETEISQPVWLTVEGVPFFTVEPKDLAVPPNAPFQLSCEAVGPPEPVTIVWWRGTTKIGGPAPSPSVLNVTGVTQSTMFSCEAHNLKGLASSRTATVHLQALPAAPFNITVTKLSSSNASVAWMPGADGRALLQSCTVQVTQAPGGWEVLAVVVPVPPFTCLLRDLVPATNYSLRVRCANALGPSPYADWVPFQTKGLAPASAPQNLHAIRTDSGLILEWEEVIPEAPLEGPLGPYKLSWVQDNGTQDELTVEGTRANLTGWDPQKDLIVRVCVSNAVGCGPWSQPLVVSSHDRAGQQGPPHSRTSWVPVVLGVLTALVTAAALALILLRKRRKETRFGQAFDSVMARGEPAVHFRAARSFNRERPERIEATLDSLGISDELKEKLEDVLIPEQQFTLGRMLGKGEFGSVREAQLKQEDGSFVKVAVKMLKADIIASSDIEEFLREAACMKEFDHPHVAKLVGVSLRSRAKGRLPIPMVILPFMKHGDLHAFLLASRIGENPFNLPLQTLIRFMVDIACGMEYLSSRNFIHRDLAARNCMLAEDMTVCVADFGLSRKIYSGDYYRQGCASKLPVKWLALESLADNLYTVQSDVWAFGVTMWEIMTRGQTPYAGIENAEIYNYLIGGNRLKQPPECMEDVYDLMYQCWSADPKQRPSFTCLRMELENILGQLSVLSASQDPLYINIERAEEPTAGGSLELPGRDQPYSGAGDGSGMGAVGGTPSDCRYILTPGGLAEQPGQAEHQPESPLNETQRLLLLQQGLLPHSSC

FLT3 = biological target: T3, FLT3 (Homo sapiens, UniProt P36888); assay: FLT3 kinase inhibition IC50; conditions: Example 6
T3 sequence (P36888 27-993): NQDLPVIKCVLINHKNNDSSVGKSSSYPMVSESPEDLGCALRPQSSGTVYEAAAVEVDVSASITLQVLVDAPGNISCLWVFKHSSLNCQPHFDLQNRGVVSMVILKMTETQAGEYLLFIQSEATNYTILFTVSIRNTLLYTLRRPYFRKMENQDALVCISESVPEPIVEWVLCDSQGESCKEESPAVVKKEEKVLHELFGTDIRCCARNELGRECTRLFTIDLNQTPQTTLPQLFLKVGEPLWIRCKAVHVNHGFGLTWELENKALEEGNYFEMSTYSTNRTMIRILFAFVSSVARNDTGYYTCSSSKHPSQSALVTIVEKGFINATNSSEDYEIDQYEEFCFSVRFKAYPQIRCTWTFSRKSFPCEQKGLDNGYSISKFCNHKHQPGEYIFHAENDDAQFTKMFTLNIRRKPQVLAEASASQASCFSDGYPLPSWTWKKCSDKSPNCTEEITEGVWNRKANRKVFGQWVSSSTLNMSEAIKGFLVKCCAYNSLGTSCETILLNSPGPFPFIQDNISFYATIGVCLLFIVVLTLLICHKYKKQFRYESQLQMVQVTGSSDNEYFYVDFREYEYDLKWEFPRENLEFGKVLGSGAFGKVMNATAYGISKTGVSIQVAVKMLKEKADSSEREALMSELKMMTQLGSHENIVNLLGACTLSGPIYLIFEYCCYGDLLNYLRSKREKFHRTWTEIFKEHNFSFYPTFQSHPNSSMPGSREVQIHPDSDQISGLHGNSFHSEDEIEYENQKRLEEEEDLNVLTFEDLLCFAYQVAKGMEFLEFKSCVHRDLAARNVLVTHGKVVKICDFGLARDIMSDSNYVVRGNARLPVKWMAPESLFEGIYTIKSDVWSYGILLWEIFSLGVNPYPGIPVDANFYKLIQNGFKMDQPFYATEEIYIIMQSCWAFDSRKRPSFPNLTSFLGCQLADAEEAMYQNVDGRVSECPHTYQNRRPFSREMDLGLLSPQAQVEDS

IC50 (Axl; Example 6): 5.5 nM
IC50 (Axl; Table 1): < 10 nM
IC50 (Tyro3; Example 6): 0.56 nM
IC50 (Tyro3; Table 1): < 10 nM
IC50 (FLT3): 0.76 nM
Compound: O[C@H]1CC[C@H](Nc2nc(Nc3ccccc3)ncc2-c2ccc(CN3CCCC3)cn2)CC1 [UNC4198A]

Reference: patent US10526309B2, “Pan-TAM inhibitors and Mer/Axl dual inhibitors” (The University of North Carolina at Chapel Hill, priority 2015, dated 2020)
